# Experiment: cardiovascular CTA (Siemens Sensation 64) contrast enhancement, generated protocol vs standard biphasic protocol
# Format: in vivo, patients
# Experimental: It was expected that left and right heart contrast enhancement would be more consistent across subjects using the cardiac protocol generation system/method of the present invention as compared to typical methods of establishing protocol parameters. To evaluate the level and consistency of enhancement, cardiac CE CT data from a pilot study were analyzed. Two anatomic regions of interest (the descending aorta and the right ventricle) were identified in each subject's scan (reconstructed at 60% RR interval) via a semi-automatic segmentation algorithm. For every set of axial slices acquired at a single time point, the mean enhancement within each of the regions was computed, yielding time enhancement curves. The influence of a per-patient, contrast injection protocol having a dilution phase on right heart enhancement during cardiac CTA was also studied. Sufficient enhancement for assessment of the right heart allows for the assessment of right heart pathology. […] Standard Errors in the other groups were: uni-phasic (+/−39 HU)), bi-phasic (+/−39 HU), and fixed dilution phase (+/−28 HU). […] Left Heart Enhancement averaged 325 HU+/−80
# A study of 20 patients undergoing cardiovascular CTA (Siemens Sensation 64) using injection protocols generated using the system/method of the present invention (Iopimidol 370) and 19 control subjects with a standard biphasic protocol (Iopimidol 370 contrast volume=scan duration×5 ml/s, followed by a 40 ml saline flush) was made. All values of the time enhancement curves were pooled across subjects, and the two groups were compared via unpaired t-tests. The mean enhancements for the protocols generated by the present invention and the biphasic protocols were 357±69 HU and 323±64 HU, respectively (p=10^−8). The right ventricle mean enhancements were 318±85 HU and 212±96 HU (p=10^−21).
smiles,measurement,setting,value
"C[C@H](O)C(=O)Nc1c(I)c(C(=O)NC(CO)CO)c(I)c(C(=O)NC(CO)CO)c1I [Iopimidol 370, Iopimidol]",right ventricle mean enhancement (FIG. 35C),"protocols generated by the present invention, 20 patients",318±85 HU
same,"mean enhancement (descending aorta, FIG. 35B)","protocols generated by the present invention, 20 patients, time enhancement curve values pooled across subjects",357±69 HU
same,"mean enhancement (descending aorta, FIG. 35B)","standard biphasic protocol (contrast volume = scan duration x 5 ml/s, then 40 ml saline flush), 19 control subjects",323±64 HU
same,right ventricle mean enhancement (FIG. 35C),"standard biphasic protocol, 19 control subjects",212±96 HU

# Reference: US10463782B2, “Patient-based parameter generation systems for medical injection procedures” (BAYER HEALTHCARE LLC, priority 2006, dated 2019)
